Experimental findings from US20220313803A1, “NOVEL NEOANTIGENS AND CANCER IMMUNOTHERAPY USING SAME” (BRIGHTPATH BIOTHERAPEUTICS CO., LTD., priority 2019, published 2022) are described below.

Entries after “also recorded” stand apart in the source; their conditions may differ.

The test system of experiment [1] is antigen-specific T cells (CD4 or CD8-positive) from healthy human PBMCs. As to the kind of experiment: Immunogenicity evaluation of peptides with healthy human PBMCs (ICS for IFNy or IFNy ELISA). Type of experiment: cell-based. To be noted: for activation of CD8-positive cells: donor No. 9; for immunogenicity as HLA Class I / Class II epitope / activation of CD4-positive T cells: healthy donor PBMCs; for activation of CD4-positive T cells: CD4-positive IFNy-producing cells; for samples in which the peptide had immunogenicity (positive/tested): single peptide re-analysis, 24 donors (Mix-1, Mix-2 peptides) or 25 donors (Mix-3 peptides). An excerpt:
Peripheral blood mononuclear cells (PBMCs) that were those of a lot containing HLA-A*24:02 or A*02:01 of purified normal human PBMCs (Precision Bioservice, 93000-10M or -50M), were selected and used. Alternatively, PBMCs were separated and collected by density gradient centrifugation from peripheral blood provided by 10 healthy volunteers (including those of HLA-A*24:02 or A*02:01) recruited at the Kanagawa Cancer Center Research Institute, and were used in the experiment.
Healthy human PBMCs of 2×10^6 cells were cultured (a CO2 incubator; 5% CO2 and at 37° C.) for 7 days in the presence of the peptides to be evaluated (2, 2.5 or 5 μg/mL, and in the case of Mix (described later), 2 lag/mL for each peptide), and then the cells were collected. AIM-V medium (Thermo Fisher Scientific K.K., 12055-091) supplemented with a 5% human serum (NIP Biomedicals, 2931949) was used as medium.
On the other hand, the PBMCs of the same lot were cultured in the presence of a GM-CSF and IL-4 for 7 days to differentiate into dendritic cells (DC), and a part thereof was cryopreserved.
Cell stimulation for evaluation of immunogenicity was carried out according to the method outlined in FIG. 2. Namely, the PBMCs stimulated with the peptide for 7 days were collected and co-cultured in the presence of DC (1×10^5 cells) treated with a mitomycin C (60 μg/mL, Kyowa Kirin Co., Ltd.), each peptide (2, 2.5 or 5 μg/mL), and 0.1 KE/mL of OK-432 (for injection of Picibanil, Chugai Pharmaceutical Co., Ltd.). An IL-2 (PeproTech, Inc., AF-200-02) was added at 10 IU/mL on the second day of the co-culture (Day 9 with the stimulation start date as Day 0), and the cells were further cultured for 5 days.
After culturing (Day 14), the cells were collected, the cryopreserved DC was thawed, and the cells were co-cultured again in the presence of the same concentration of each peptide for 7 days. The cells cultured for a total of 21 days were collected, and activation of antigen-specific T cells was confirmed by intracellular cytokine staining (ICS) or IFNy ELISA. For evaluation, the PBMCs for 24 donors (of Mix-1 and Mix-2) or the PBMCs for 25 donors (of Mix-3) (the donor numbers 1 to 10 are derived from healthy volunteers, and the donor numbers with 3 digits were purchased from Precision Bioservice, Inc.), were used. In this study, 10 kinds of peptides designed from the sequences containing the driver mutations in Example 1 and synthesized (SEQ ID NO: 1 to SEQ ID NO: 10) were mixed to the following mixtures containing 3 to 4 kinds of peptides (see FIG. 4): Mix-1: a mixture of KRA S-G 1 2C (SEQ ID NO: 3), NRAS-Q61K (SEQ ID NO: 6) and PIK3CA-H1047R (SEQ ID NO: 8); Mix-2: a mixture of KRAS-G12V (SEQ ID NO: 2), NRAS-Q61R (SEQ ID NO: 7), and PIK3CA-E545K (SEQ ID NO: 9); and Mix-3: a mixture of KRAS-G12D (SEQ ID NO: 1), KRAS-G12R (SEQ ID NO: 4), KRAS-G13D (SEQ ID NO: 5), and C-Kit-D816V (SEQ ID NO: 10). First, activation of antigen-specific T cells by stimulation with each Mix was observed, and when the activation was observed, the T cells were stimulated in the presence of each peptide alone to identify a peptide having immunogenicity. The presence or absence of activation was determined by the ICS (IFNy) or ELISA (IFNy in the culture supernatant).
Intracellular cytokine staining (ICS) was carried out according to the following procedure. The cells (5.0×10^4 cells) cultured for 21 days in the presence of the peptide and collected in the present Example, and antigen-presenting cells (APC) (autologous DC; 5×10^3 cells) were placed in a 96-well U bottom plate and cultured for 2 hours in the presence of the peptide. 10 μg/mL of Brefeldin A (Merck KGaA, B7651) was added to the cells to culture for 20 to 24 hours. […]

Experiment [2] concerns PIK3CA-H1047R-specific TCR-T cells. In words: Antigen specificity of TCR-T cells (IFNy-producing cells by flow cytometer). Format: cell-based, human. To be noted: TCR-T cells co-cultured with APC (donor No. 9-derived EB virus immortalized B cells) in the presence of the peptide, 20 to 24 hours. As for the experimental part:
Via a retrovirus vector (donated by Toyama University) to which the TCRa chain gene (SEQ ID NO: 29) and TCRI3 chain gene (SEQ ID NO: 30) identified in Example 5 derived from the donor No. 9-derived PIK3CA-H1047R-specific T cells were inserted, a cell line (TCR-T cell) expressing the TCR gene was prepared by introducing the PIK3CA-H1047R-specific TCR gene into T cells derived from healthy subjects. The prepared TCR-T cells (TCR gene-expressing cell line) (5.0×10^4 cells as T cells) and APC (donor No. 9-derived EB virus immortalized B cells; 5×10^3 cells) were cultured in a 96 well U bottom plate for 20 to 24 hours in the presence of the antigen peptide (PIK3CA-H1047R (SEQ ID NO: 8)) or the wild-type peptide thereof ([…]), then the cultured cells were collected, and antigen specificity was confirmed by detecting IFNy-producing cells with a flow cytometer.
For orientation: Flow cytometry measures light scatter and fluorescence of single cells or particles in a stream.

Experiment [3] addresses T1, PIK3CA H1047R peptide on HLA-DRB1*04:05 (human).
T1 peptide: EYFMKQMNDARHGGW
As to the kind of experiment: cytokine release.

The target in experiment [4] is T2, PIK3CA H1047R peptide on HLA-DRB1*04:05 (human).
T2 peptide: LEYFMKQMNDARHGG
As to the kind of experiment: cytokine release.

Experiment [5] deals with T3, PIK3CA H1047R peptide on HLA-DRB1*04:05 (human).
T3 peptide: FMKQMNDARHGGWT
In words: cytokine release.

The target of experiment [6] is T4, PIK3CA H1047R peptide on HLA-DRB1*04:05 (human).
T4 peptide: MKQMNDARHGGWTT
As to the kind of experiment: cytokine release.

The target in experiment [7] is T5, PIK3CA H1047R peptide on HLA-DRB1*04:05 (human).
T5 peptide: ALEYFMKQMNDARHG
In words: cytokine release.

In experiment [8] the target is T6, PIK3CA H1047R peptide on HLA-DRB1*04:05 (human).
T6 peptide: YFMKQMNDARHGGW
As to the kind of experiment: cytokine release.

Experiment [9] addresses T7, PIK3CA wild-type peptide on HLA-DRB1*04:05 (human).
T7 peptide: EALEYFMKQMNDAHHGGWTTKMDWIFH
As to the kind of experiment: cytokine release.

In experiment [10] the target is T8, PIK3CA H1047R peptide on HLA-DRB1*04:05 (human).
T8 peptide: EALEYFMKQMNDARH
As to the kind of experiment: cytokine release.

Take “C-Kit-D816V: 27-mer C-Kit D816V neoantigen peptide GRITKICDFGLAR[V]IKNDSNYVVKGNA (GRITKICDFGLARVIKNDSNYVVKGNA; listed as Homo sapiens)”: in experiment [1], the “activation of CD8-positive cells” value is “activation of CD8-positive cells was observed in 1 donor”; the “immunogenicity as HLA Class I / Class II epitope” value is “immunogenicity as both the HLA Class I epitope and the Class II epitope”; the “activation of CD4-positive T cells” value is given as “those derived from 4 donors were CD4 positive; also recorded: activation of CD4-positive T cells was observed; also recorded: particularly strong ability to activate CD4-positive helper T cells”; the “samples in which the peptide had immunogenicity (positive/tested)” value (“samples … (positive/tested)” below) was 5/25.
For the molecule “EALEYFMKQMNDAHHGGWTTKMDWIFH [WT1, wild-type peptide of PIK3CA-H1047R, reference compound]”, in experiment [2], the “frequency of IFNy-producing cells” value is given as “less than 1%”.
In the case of “KRAS-G12D: 27-mer KRAS G12D neoantigen peptide MTEYKLVVVGA[D]GVGKSALTIQLIQNH”, in experiment [1], the “activation of CD4-positive T cells” value is listed as “activation of CD4-positive T cells was observed; also recorded: particularly strong ability to activate CD4-positive helper T cells” and the “samples … (positive/tested)” value is 1/25. In experiment [1] (samples derived from healthy people, single peptide analysis), the “frequency of samples in which the peptide had immunogenicity” value is reported as 4.0%.
“NRAS-Q61R: 27-mer NRAS Q61R neoantigen peptide GETCLLDILDTAG[R]EEYSAMRDQYMRT (GETCLLDILDTAGREEYSAMRDQYMRT; listed as Homo sapiens)”: in experiment [1], the “activation of CD4-positive T cells” value was “they were all CD4-positive T cells; also recorded: activation of CD4-positive T cells was observed; also recorded: particularly strong ability to activate CD4-positive helper T cells” and the “samples … (positive/tested)” value is reported as 3/24.
As to “PIK3CA-H1047R: 27-mer PIK3CA H1047R neoantigen peptide EALEYFMKQMNDA[R]HGGWTTKMDWIFH (EALEYFMKQMNDARHGGWTTKMDWIFH; listed as Homo sapiens)”, in experiment [1], the “activation of CD8-positive cells” value is “activation of CD8-positive cells was also observed”; the “immunogenicity as HLA Class I / Class II epitope” value is “immunogenicity as both the HLA Class I epitope and the Class II epitope”; the “activation of CD4-positive T cells” value was “All antigen-specific T cells activated in the 4 donors were CD4 positive; also recorded: activation of CD4-positive T cells was observed; also recorded: particularly strong ability to activate CD4-positive helper T cells”; the “samples … (positive/tested)” value is given as 4/24. Besides, the “frequency of IFNy-producing cells” value in [2] was 30.4%±0.9%.

B1: TCR of the donor No. 9-derived PIK3CA-H1047R-specific T cells (SEQ ID NOs 29 and 30) (TCR, V domains shown)
Valpha: QQVKQSPQSLIVQKGGISIINCAYENTAFEYFPWYQQFPGKGPALLIAIRPDVSEKKEGRFTISFNKSAKQFSLHIMDSQPGDSATYFCAASGSYNNNDMRFGAGTRLTVKP
Vbeta: NAGVTQTPKFQVLKTGQSMTLQCAQDMNHEYMSWYRQDPGMGLRLIHYSVGAGITDQGEVPNGYNVSRSTTEDFPLRLLSAAPSQTSVYFCASSYASPGTGYSGELFFGEGSRLTVL
B1: the binding result in experiment [3], in experiment [4], in [5], in [6], in [7] and in experiment [8] was “recognises” throughout. In addition, the binding result in experiment [9] was “no recognition”; in experiment [10], “recognises”.
